The nature of data set [1]: Influence on body weight of SD rat by repeated administration (in vivo). The conditions noted are these: two weeks; for Relative body weight ratio (%): 750 mg/kg orally once a day, relative to vehicle-administered group. On the procedure:
The rats were grouped as follows, with four animals in each group, by a random classification method such that the average body weights of the each groups would be almost uniform (Day 1).
The body weight change (BWC) was used as an index indicating the systemic toxicity caused by drug administration. The BWC was calculated by the following formula. BWC (%)=([(Rat body weight on 14 days after the administration)−(rat body weight at the time of grouping)]/(rat body weight at the time of grouping))×100
The relative body weight change ratios in the each compound-administered groups were calculated by the following formula when the BWC in the vehicle-administered group was set as 1, and the results are indicated in Table 52. Relative body weight change ratio (%)=(BWC in the compound-administered group)/(BWC in the vehicle-administered group)×100

Data set [2] concerns Human B cell lymphoma-derived cell line TMD8. The experiment in a line: Antitumor effect, TMD8 subcutaneously transplanted into SCID mice. In kind it is in vivo. To be noted: Day 17; 50 mg/kg orally once a day. The text has this: (§1) Human B cell lymphoma-derived cell line TMD8 was subcutaneously transplanted into SCID mice. At the time point when the volume of engrafted tumors reached 100 to 200 mm^3, the mice were divided into groups, with 5 animals in each group, by a random classification method (Day 1) such that the tumor volumes in the various groups would be uniform, and oral administration was initiated. […] In order to compare the antitumor effect caused by the drug administration, the relative tumor volume (RTV), which was the proliferation ratio of tumor when the tumor volume at the time of grouping was set as one, was determined by the following formula. RTV=(Tumor volume on the day of tumor volume measurement)/(tumor volume at the time of grouping)

For data set [3], the system named is purified recombinant human EGFR protein / BTK. The experiment in a line: BTK inhibition selectivity compared with EGFR kinase inhibitory activity (in vitro). In kind it is biochemical. The conditions noted are these: EGFR assay ATP 1.5 μM.
The nature of data set [4]: Body weight change ratio in TMD8-transplanted SCID mice. To be noted: Day 17; 50 mg/kg orally once a day. In kind it is in vivo.
Text: as §1
The body weight change (BWC) was used as an index indicating the systemic toxicity caused by drug administration. BWC (%)=([(mice body weight on the day of weight measurement)−(mice body weight at the time of grouping)]/(mice body weight at the time of grouping))×100 (Mathematical Formula 1)

For data set [5], the system named is A431 cells / TMD8 cells. Briefly: Proliferation inhibitory activity against cell lines expressing BTK and EGFR (in vitro), comparison of selectivity. To be noted: ratio from GI50 (nM), 3 days culture, CELLTITER GLO. In kind it is cell-based, human. Summed up: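 BTK-expressing TMD8 DLBCL cells (RPMI1640/10% FBS) and EGFR-overexpressing A431 epidermoid carcinoma cells (DMEM/10% FBS) cultured 1 day, then exposed to compound (0.2% DMSO final) for 3 days at 37° C. Luminescence read-out; inhibition ratio % = (C−T)/(C−C0)×100, with A431/TMD8 ratio as selectivity index.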
For orientation: Cellular ATP, detected with luciferase, serves as a proxy for viable cell number.

The target of data set [6] is purified recombinant human BTK protein (Homo sapiens (Human), UniProt Q06187). Briefly: Measurement of BTK inhibitory activity (in vitro). In kind it is biochemical. To be noted: FL-PEPTIDE 2 substrate 1 μM, ATP 45 μM, 40 minutes at 25° C. An outline of the steps: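 Recombinant human BTK with FL-PEPTIDE 2 substrate (1 μM), 45 μM ATP and 10 mM MgCl2 in 20 mM HEPES pH 7.5, 2 mM DTT, 0.01% Triton X-100, 5% DMSO; 40 min at 25° C. Reaction stopped with 30 mM EDTA. Phosphorylated and unphosphorylated peptide separated and detected by microchannel capillary electrophoresis.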

SMILES strings stand for the structures.

The term IC50 denotes the concentration needed to halve the response being measured.

Sequence of purified recombinant human BTK protein (Q06187 whole entry): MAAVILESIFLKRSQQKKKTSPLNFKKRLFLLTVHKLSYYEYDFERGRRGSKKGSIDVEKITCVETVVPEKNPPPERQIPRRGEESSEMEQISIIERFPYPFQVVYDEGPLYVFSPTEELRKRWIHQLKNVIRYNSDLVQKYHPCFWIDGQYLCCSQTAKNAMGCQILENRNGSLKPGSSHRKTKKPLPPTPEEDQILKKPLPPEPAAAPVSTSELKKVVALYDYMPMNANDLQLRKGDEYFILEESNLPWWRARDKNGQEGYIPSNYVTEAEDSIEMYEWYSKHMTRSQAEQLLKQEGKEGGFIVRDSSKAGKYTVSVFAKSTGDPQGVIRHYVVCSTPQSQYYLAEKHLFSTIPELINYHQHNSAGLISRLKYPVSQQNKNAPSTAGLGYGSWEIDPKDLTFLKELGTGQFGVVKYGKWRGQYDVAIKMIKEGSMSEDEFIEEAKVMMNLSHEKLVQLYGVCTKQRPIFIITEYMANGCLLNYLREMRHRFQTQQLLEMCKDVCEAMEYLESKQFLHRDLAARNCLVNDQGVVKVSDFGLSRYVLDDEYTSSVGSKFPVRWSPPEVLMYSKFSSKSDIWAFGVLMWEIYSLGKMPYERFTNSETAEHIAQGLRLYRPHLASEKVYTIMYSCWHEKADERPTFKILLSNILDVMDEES

Regarding `C=CC(=O)N1CCC[C@@H](n2nc(-c3ccc(Oc4ccccc4)cc3)c3c(N)ncnc32)C1` [Comparative Example Compound 1, (R)-1-(3-(4-amino-3-(4-phenoxyphenyl)-1H-pyrazolo[3,4-d]pyrimidin-1-yl)piperidin-1-yl)prop-2-en-1-one, reference compound], in data set [1] (280 mg/kg orally once a day), the “individuals suffering from loose bowel” value was “individuals suffering from loose bowel were recognized” and the “width of rat body weight increase compared with the vehicle-administered group” value was “very small”.
Consider `C=CC(=O)N1CCC[C@@H](n2nc(C(=O)Nc3nc4cc(F)ccc4o3)c3c(N)ncnc32)C1` [Example 12, (R)-1-(1-acryloylpiperidin-3-yl)-4-amino-N-(5-fluorobenzo[d]oxazol-2-yl)-1H-pyrazolo[3,4-d]pyrimidine-3-carboxamide], for which, in data set [2], the “RTV (relative tumor volume)” value came to 0.13. Moreover, in data set [3], the “EGFR inhibitory activity IC50 value (nM)/BTK inhibitory activity IC50 value (nM)” value (from here on “EGFR inhibitory activity IC50 value”) is 84.2. Moreover, in data set [4], the “BWC (body weight change)” value is 6.0%. For the same compound, the “A431 cell proliferation inhibition ratio/TMD8 cell proliferation inhibitio ratio” value in data set [5] was 3077.4. Also, the IC50 in data set [6] was found to be 0.433 nM. Also, the “Relative body weight ratio (%)” value in data set [1] was determined as 91.2%.
Take `CN(C)C/C=C/C(=O)N1CC[C@@H](n2cc(C(=O)Nc3nc4cc(Cl)ccc4o3)c3c(N)ncnc32)C1` [Example 49, (R,E)-4-amino-N-(5-chlorobenzo[d]oxazol-2-yl)-7-(1-(4-(dimethylamino)but-2-enoyl)pyrrolidin-3-yl) 7H-pyrrolo[2,3-d]pyrimidine-5-carboxamide]: the “EGFR inhibitory activity IC50 value” value in data set [3] came out at 24.8. Further, in data set [5], the “A431 cell proliferation inhibition ratio/TMD8 cell proliferation inhibitio ratio” value is greater than 3260.5. In addition, the IC50 in data set [6] turned out to be 1.53 nM.
The like results for `CN(C)C/C=C/C(=O)N1CC[C@@H](n2nc(C(=O)Nc3nc4cc(C(F)(F)F)ccc4o3)c3c(N)ncnc32)C1` [Example 44, (R,E)-4-amino-N-(5-(trifluoromethyl)benzo[d]oxazol-2-yl)-1-(1-(4-(dimethylamino)but-2-enoyl)pyrrolidin-3-yl)-1H-pyrazolo[3,4-d]pyrimidine-3-carboxamide] were, in that order, 17.1, 10905.1 and 0.877 nM.
In the case of `C=CC(=O)N1CCC[C@@H](n2nc(C(=O)Nc3nc4ncccc4o3)c3c(N)ncnc32)C1` [Example 9, (R)-1-(1-acryloylpiperidin-3-yl)-4-amino-N-(oxazolo[4,5-b]pyridin-2-yl)-1H-pyrazolo[3,4-d]pyrimidine-3-carboxamide], in data set [3], the “EGFR inhibitory activity IC50 value” value turned out to be 28.4. Moreover, the “A431 cell proliferation inhibition ratio/TMD8 cell proliferation inhibitio ratio” value in data set [5] came out at 8196.7. Besides, the IC50 in data set [6] came out at 1.37 nM.
`C=CC(=O)N1CCC[C@@H](n2nc(C(=O)Nc3nc4ccccc4o3)c3c(N)ncnc32)C1` [Example 13, (R)-1-(1-acryloylpiperidin-3-yl)-4-amino-N-(benzo[d]oxazol-2-yl)-1H-pyrazolo[3,4-d]pyrimidine-3-carboxamide]: the “RTV (relative tumor volume)” value in data set [2] stood at 4.24. Further, the “EGFR inhibitory activity IC50 value” value in data set [3] worked out at 28.8. In data set [4], the “BWC (body weight change)” value was 3.8%. Also, in data set [5], the “A431 cell proliferation inhibition ratio/TMD8 cell proliferation inhibitio ratio” value turned out to be 4872.2. Further, in data set [6], the IC50 amounted to 0.813 nM. Moreover, the “Relative body weight ratio (%)” value in data set [1] is 79.1%.
Consider `Nc1ncnc2c1c(C(=O)Nc1nc3cc(Cl)ccc3o1)cn2[C@@H]1CCN(C(=O)/C=C/CN2CCCC2)C1` [Example 53, (R,E)-4-amino-N-(5-chlorobenzo[d]oxazol-2-yl)-7-(1-(4-(pyrrolidin-1-yl)but-2-enoyl)pyrrolidin-3-yl) 7H-pyrrolo[2,3-d]pyrimidine-5-carboxamide], for which the “EGFR inhibitory activity IC50 value” value in data set [3] was 25.5. In data set [5], the “A431 cell proliferation inhibition ratio/TMD8 cell proliferation inhibitio ratio” value is greater than 1535.4. The IC50 in data set [6] is 1.68 nM.
